Test results as given in patent US6890727B2, “Diagnostic assay for Alzheimer's disease: assessment of Aβ abnormalities” (The General Hospital Corporation, priority 1994, dated 2005).
“Also recorded” adds a separate entry of the source.

Assays:
[1] = tested on: trypsin; assay: Tryptic digestion of Aβ after incubation with Zn2+; type: biochemical; conditions: Zn^2+ 200 μM
Method: Tryptic Digestion of Aβ-Aβ1-40 (13.9 μg) was incubated with Zn^2+ ([…] in blocking buffer, 1 h, 37° C.) and then digested with trypsin (12 ng, 3 h, 37° C.). The reaction was stopped by adding SDS sample buffer containing phenylmethylsulfonyl fluoride (1 mM), boiling the samples (5 min), and applying the samples to Tris/Tricine gel electrophoresis and transfer. The blot was washed with EDTA, Coomassie-stained, incubated with ^65Zn^2+, individual bands were excised, assayed for ^65Zn^2+ binding, and N-terminal sequenced to confirm the identity of the digestion products. The effects of Zn^2+ (up to 100 μM in TBS) on the activity of trypsin, itself, were assayed by assay of Z-Arg-amido-4-methylcoumarin (Sigma) fluorescent cleavage product and determined to be negligible.
(FIG. 4a) depicts a blot of tryptic digests of Aβ (13.9 μg) after incubation with increasing concentrations of zinc (lane labels, in micromolar), stained by Coomassie Blue. […] The migration of the low molecular size markers (STD) are indicated (in kilodaltons) on the right. (FIG. 4b) depicts ^65Zn^2+ binding to Aβ tryptic digestion products. The blot in 4a was incubated with ^65Zn^2+, the visible bands excised, and the bound counts for each band determined.

[2] = target: T1, Aβ (Homo sapiens, UniProt P05067); assay: G50 gel filtration chromatography of Aβ in presence of metal ions or EDTA; conditions: 25 μM total metal ion
T1 construct: purchased Sigma; Bachem (results also replicated with peptide from the Keck Laboratory, Yale); host or cells: chemical synthesis
T1 sequence (P05067 672-711): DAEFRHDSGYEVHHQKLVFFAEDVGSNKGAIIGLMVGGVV
Method: Aβ was stored in aliquots of 0.52 mg/ml in water at −20° C., then kept at 4° C. when thawed. Reagents were mixed without vortex mixing. The incubated Aβ was directly applied to a G50 SF (Pharmacia, Uppsala, Sweden) column (Bio-Rad Econo-Column, 30×0.7 cm) pre-equilibrated with metal salt solution or EDTA (50 μM) in TBS at 20° C. and eluted at 8 ml/h (Wiz peristaltic pump, Isco, Lincoln, Nebr.). Absorbance was measured at 254 and 214 nm (Type 6 optical unit, Isco). The amount of Aβ eluting at various peaks was estimated from the area under the curve. […] Because the sample eluted in a volume of approximately 15 ml, the average concentration of the peptide on the column was 0.8 μM.
To study the effects of protein blocking upon adsorption of β to the chromatography column, a Sephadex G50 SF column which had been characterized previously for Aβ behavior was eluted with 3% bovine serum albumin (BSA) in TBS (50 ml) and equilibrated with non-BSA-containing buffer, subsequent to repeating the Aβ experiments.
The elution points of molecular mass standards and relative assignments of Aβ peak elutions are indicated. Mass standards were blue dextran (2×10^6 kDa, V0=void volume), BSA (66 kDa), carbonic anhydrase (29 kDa), cytochrome c (12.4 kDa), and aprotinin (6.5 kDa). The mass of Aβ is 4.3 kDa. […] Data for experiments performed in the presence of copper were taken from 214 nm readings and corrected for comparison.

[3] = Clinical study of oral zinc supplementation: cognition and plasma APP levels; type: in vivo, human
Method: The cerebral cortex, and especially the hippocampus, contains the highest concentrations of zinc in the body (C. J. Frederickson, M. A. Klitenick, W. I. Manton, J. B. Kirkpatrick, Brain Res. 273:335 (1983)), and is exposed to extreme fluctuations of extracellular zinc levels (0.15 to 300 μM, C. J. Frederickson, Int. Rev. Neurobiol. 31:145 (1989)), e.g. during synaptic transmission (S. Y. Assaf and S.-H. Chung, Nature 308:734 (1984); G. A. Howell, M. G. Welch, C. J. Frederickson, Nature 308:736 (1984)). The cortical vasculature contains an intraluminal zinc concentration of 20 μM (I. J. T. Davies, M. Musa, T. L. Dormandy, J. Clin. Pathol. 21:359 (1968)), but the perivascular interstitial zinc concentration is 0.15/μM (C. J. Frederickson, Int. Rev. Neurobiol. 31:145 (1989)). Both sites of high zinc concentration gradients are severely and consistently affected by the pathological lesions of AD (B. T. Hyman, G. W. Van Hoesen, L. J. Kroner, A. R. Damasio, Ann. Neurol. 20:472 (1986); G. G. Glenner and C. W. Wong, Biochem. Biophys. Res. Commun. 120:885 (1984)). […] Additional evidence for altered cerebral zinc metabolism in AD include decreased temporal lobe zinc levels (D. Wenstrup, W. D. Ehmann, W. R. Markesbery, Brain Res. 533:125 (1990); J. Constantinidis, Encephale 16:231 (1990); F. M. Corrigan, G. P. Reynolds, N. I. Ward, Biometals 6:149 (1993)), elevated (80%) CSF levels (C. O. Hershey et al, Neurology 33:1350 (1983)), an increase in extracellular Zn^2+-metalloproteinase activities in AD hippocampus (J. R. Backstrom, C. A. Miller, Z. A. Tökés, J. Neurochem. 58:983 (1992)), and decreased levels of astrocytic growth-inhibitory factor, a metallothionein-like protein which chelates zinc (Y. Uchida, K. Takio, K. Titani, Y. Ihara, M. Tomonaga, Neuron 7:337 (1991)). Recently, a clinical study assayed the effects of oral zinc supplementation (6.7-fold the recommended daily allowance, a dose commonly found in nutritional supplements) upon cognition and plasma APP levels in AD subjects and age-matched controls. […]

SMILES: [Zn+2] [Zn^2+, zinc]
- inhibition of Aβ hydrolysis by trypsin [1]: complete inhibition
- Aβ applied to the column that is eluted [2]: < 20%
- drop in Mini-Mental State Examination scores ([3]; AD group, after four days of oral zinc supplementation): 31%
- effect on cognition in AD subjects ([3]; oral, 6.7-fold the recommended daily allowance): acute decline in cognition; also recorded: acutely adverse effect on cognition
- effect on age-matched control subjects ([3]; same conditions): remained unaffected
